The values below come from ChEMBL document CHEMBL1134012, “Synthesis of thiophene-2-carboxamidines containing 2-aminothiazoles and their biological evaluation as urokinase inhibitors” (Bioorg Med Chem Lett, 2001).

This assay has as its target Urokinase-type plasminogen activator (Homo sapiens, UniProt P00749). The experiment in a line: In vitro inhibitory activity against Urokinase-type plasminogen activator (microPa).

The structures appear in SMILES notation.

The term Ki denotes a dissociation constant, usually derived from enzyme kinetics or from competition with a known ligand. For the molecule `CSc1sc(C(=N)N)cc1-c1csc(N)n1`, the affinity, expressed as Ki, was 3900 nM.

Turning to `CSc1sc(C(=N)N)cc1-c1csc(Nc2ccc(Cc3ccccc3)cc2)n1`, the Ki was found to be 180 nM.

Consider `CSc1sc(C(=N)N)cc1-c1csc(Nc2ccccc2Br)n1`, for which affinity was put at a Ki of 280 nM.

As to `CSc1sc(C(=N)N)cc1-c1csc(Nc2ccc(Nc3ccccc3)cc2)n1`, the Ki is 70 nM.

Molecule `COc1cccc(Nc2nc(-c3cc(C(=N)N)sc3SC)cs2)c1` displayed a Ki of 280 nM.

`CSc1sc(C(=N)N)cc1-c1csc(Nc2ccc(Oc3ccccc3)cc2)n1` displayed a Ki of 60 nM.

In turn, `CSc1sc(C(=N)N)cc1-c1csc(Nc2cccc3ccccc23)n1` showed a Ki of 500 nM.

The molecule `CSc1sc(C(=N)N)cc1-c1csc(Nc2cccc(OCC(N)=O)c2)n1` came in with a Ki of 1020 nM.

Consider `COc1ccc(OC)c(Nc2nc(-c3cc(C(=N)N)sc3SC)cs2)c1`, for which affinity was put at a Ki of 660 nM.

Turning to `CSc1sc(C(=N)N)cc1-c1csc(NCCN2CCOCC2)n1`, the affinity corresponds to a Ki of 1400 nM.

Turning to `CSc1sc(C(=N)N)cc1-c1csc(Nc2ccccc2Cl)n1`, affinity was put at a Ki of 1460 nM.

In the case of `CSc1sc(C(=N)N)cc1-c1csc(Nc2cccc(Cl)c2C)n1`, the Ki was 440 nM.

For `CSc1sc(C(=N)N)cc1-c1csc(Nc2ccc(Oc3ccc(Cl)cc3)cc2)n1`, the Ki was 110 nM.

Consider `Cc1sc(C(=N)N)cc1-c1csc(N)n1`, for which the Ki was 1620 nM.

Consider `CSc1sc(C(=N)N)cc1-c1csc(Nc2ccc3c(c2)OCO3)n1`, for which the Ki came out at 520 nM.

`Cc1sc(C(=N)N)cc1-c1csc(Nc2ccc(Oc3ccccc3)cc2)n1` gave a Ki of 80 nM.

`CSc1sc(C(=N)N)cc1-c1csc(N2CCN(c3ccccc3F)CC2)n1` had a Ki of 3060 nM.

Molecule `CSc1sc(C(=N)N)cc1-c1csc(Nc2ccc(/N=N/c3ccccc3)cc2)n1` registered a Ki of 180 nM.

In the case of `CSc1sc(C(=N)N)cc1-c1csc(Nc2ccc(S(=O)(=O)N3CCCCC3)cc2)n1`, the affinity, expressed as Ki, was 400 nM.

With `CSc1sc(C(=N)N)cc1-c1csc(NCCCc2ccccc2)n1`, the Ki is 350 nM.

Molecule `CSc1sc(C(=N)N)cc1-c1csc(NCc2ccc(C)cc2)n1` showed a Ki of 640 nM.

Take `CSc1sc(C(=N)N)cc1-c1csc(Nc2ccc(N(C)C)cc2)n1`: the affinity, expressed as Ki, was 310 nM.

As to `CSc1sc(C(=N)N)cc1-c1csc(Nc2ccc(C)cc2Br)n1`, affinity was put at a Ki of 430 nM.

Molecule `CSc1sc(C(=N)N)cc1-c1csc(Nc2ccc(Cl)cc2C)n1` registered a Ki of 280 nM.

As for `CSc1sc(C(=N)N)cc1-c1csc(Nc2ccc(Oc3ccc(C(F)(F)F)cn3)cc2)n1`, the Ki is 910 nM.

In the case of `CSc1sc(C(=N)N)cc1-c1csc(Nc2ccccc2C(C)C)n1`, the Ki turned out to be 700 nM.

In turn, `CSc1sc(C(=N)N)cc1-c1csc(Nc2cccc(C)c2C)n1` returned a Ki of 280 nM.

`CSc1sc(C(=N)N)cc1-c1csc(NC(c2ccccc2)c2ccccc2)n1` registered a Ki of 1180 nM.

For `CSc1sc(C(=N)N)cc1-c1csc(Nc2c(Cl)cccc2Cl)n1`, affinity was put at a Ki of 1500 nM.

As to `CSc1sc(C(=N)N)cc1-c1csc(Nc2ccc(OCc3ccccc3)cc2)n1`, the affinity corresponds to a Ki of 180 nM.

For the molecule `CSc1sc(C(=N)N)cc1-c1csc(NCCN2CCCCC2)n1`, the affinity corresponds to a Ki of 1600 nM.

`COc1ccc(Nc2nc(-c3cc(C(=N)N)sc3SC)cs2)cc1`: affinity was put at a Ki of 280 nM.

With `N=C(N)c1ccc(CS)s1`, the Ki was determined as 6000 nM.

`COc1cc(Nc2nc(-c3cc(C(=N)N)sc3SC)cs2)cc(OC)c1OC`: the affinity, expressed as Ki, was 160 nM.
